Experiments:
mycobacteria = details: U.S. Pat. No. 5,387,605; cited from earlier work
Yeast [1] = experiment: microbial challenge of nonionic oil-in-water emulsion, pool 4; assay type: cell-based; details: for concentration of microbes: 0.375% in emulsion
Experimental: (§1) A nonionic oil-in-water emulsion is prepared containing 0.473% 3-furan carboxylic acid. The formulation is divided into five portions, each one getting an inoculation at day 0, and a reinoculation after three weeks, of one of the following microbial cultures: (1)Enterics; (2) Pseudomonas; (3)Staphylococcus; (4)Yeast; and (5)Mold. The concentration of microbes in each individual formulation is calculated on the day of the inoculation, and then again calculated on day 2, and at the end of one, two, three (pre-reinoculation) and four weeks, at a variety of pH values. These are also compared with formulations containing 2-furan carboxylic acid and an identical series of microbes, and an acid pH control emulsion without a furan carboxylic acid added. All numbers, other than those listed as “<10”, are log base 10; thus, for example, “6.6” is equivalent to the presence of […] bacteria. Entries of <10 indicate less than 10 colony forming units, the lowest level of detection.

[2] = test system: PLA2 enzyme obtained from snake venom; details: assay concentrations 0.01, 0.1 and 1 mg/ml
Experimental: The enzyme reaction is accomplished in a cuvette containing […] of phosphate buffered saline. Fluorometric substrate NBD-C6-HPC is solubilized 1 mM in EtOH, and is diluted in the reaction mixture to yield a 10 μM final concentration. The assay is initiated with the addition of 0.001 units per μl of PLA2 enzyme obtained from snake venom. Enzyme activity is monitored either with or without the presence of potential inhibitors. […] Prior to enzyme addition, samples are measured fluorometrically at excitation 470 and emission 570 to determine background level of fluorescensce. Following enzyme addition, samples are monitored every 15 minutes over a 60 minute period.

Enterics [3] = experiment: microbial challenge of nonionic oil-in-water emulsion, pool 1; assay type: cell-based
Experimental: as §1

Pseudomonas [4] = experiment: microbial challenge of nonionic oil-in-water emulsion, pool 2; assay type: cell-based; details: 0.375% in emulsion
Mold = experiment: microbial challenge of nonionic oil-in-water emulsion, pool 5; assay type: cell-based; details: for concentration of microbes: 0.375% in emulsion
Experimental: as §1

[5] = antiirritant effect against Balsam of Peru on ventral forearms of volunteers; assay type: in vivo, human; details: 0.1% in hydroalcohol 1:1, applied twenty minutes before Balsam of Peru; Minolta Chromameter; seven volunteers
Experimental: Seven volunteers with a history of skin sensitivity to Balsam of Peru are chosen for the study.
The test compounds are applied to the ventral forearms of panelists. The material is allowed to absorb for twenty minutes and then Balsam of Peru, an irritant is applied on the test sites. Skin irritation is measured in terms of increase in skin redness. The degree of redness is measured with a Minolta Chromameter and compared with the controls, the positive control being skin treated with Balsam of Peru alone, and the negative control being a skin site treated with 10% cola solution(a known antiirritant), and challenged like the test products.

[6] = test system: lymphocyte adhesion to endothelial cells; experiment: inhibition of lymphocyte adhesion to endothelial cells; assay type: cell-based, human
Experimental: Endothelial cells are grown to confluence and washed thoroughly with basal media prior to the experiment to remove all fetal calf serum. The test compounds are then added to the endothelial culture well and incubated for 2 hours. IL-1β is added to stimulated expression of adhesion molecules on the endothelial cells before lymphocytes are added. Lymphocytes are isolated from blood collected from adult human subjects and added to the endothelial culture wells. PHA is added to stimulate adhesion molecule expression in the lymphocytes and the cultures incubated overnight. After a brief washing procedure, cells are incubated with Rose Bengal, and the number of adherent cells assessed by measuring the absorbance at 570 nm.

Pseudomonas [7] = experiment: microbial challenge of nonionic oil-in-water emulsion, pool 2; assay type: cell-based
Experimental: as §1

Yeast [8] = experiment: microbial challenge of nonionic oil-in-water emulsion, pool 4; assay type: cell-based; details: 0.375% in emulsion
Enterics [9] = experiment: microbial challenge of nonionic oil-in-water emulsion, pool 1; assay type: cell-based; details: 0.375% in emulsion
Staphylococcus = experiment: microbial challenge of nonionic oil-in-water emulsion, pool 3; assay type: cell-based; details: for concentration of microbes: 0.375% in emulsion
Experimental: The formulation is divided into five portions, each one getting an inoculation at day 0, and a reinoculation after three weeks, of one of the following microbial cultures: (1)Enterics; (2) Pseudomonas; (3)Staphylococcus; (4)Yeast; and (5)Mold. The concentration of microbes in each individual formulation is calculated on the day of the inoculation, and then again calculated on day 2, and at the end of one, two, three (pre-reinoculation) and four weeks, at a variety of pH values. These are also compared with formulations containing 2-furan carboxylic acid and an identical series of microbes, and an acid pH control emulsion without a furan carboxylic acid added. All numbers, other than those listed as “<10”, are log base 10; thus, for example, “6.6” is equivalent to the presence of […] bacteria. Entries of <10 indicate less than 10 colony forming units, the lowest level of detection.

Question: What does the source list for `O=C(O)c1ccco1` [2-furan carboxylic acid]?
Answer: antimicrobial activity against mycobacteria, in words (mycobacteria): particularly effective; antimicrobial activity against yeast, in words (Yeast [1]): very poor level of activity; concentration of microbes (Yeast [1]; pH 3.0, Day 0): 5.7 log base 10; concentration of microbes (Yeast [1]; pH 3.0, Day 2): <10 colony forming units; concentration of microbes (Yeast [1]; pH 3.0, Week 1): <10 colony forming units; concentration of microbes (Yeast [1]; pH 3.0, Week 3): <10 colony forming units; concentration of microbes (Yeast [1]; pH 3.0, Week 4): <10 colony forming units; concentration of microbes (Yeast [1]; pH 4.0, Day 0): 5.7 log base 10; concentration of microbes (Yeast [1]; pH 4.0, Day 2): 3.7 log base 10; concentration of microbes (Yeast [1]; pH 4.0, Week 2): <10 colony forming units; concentration of microbes (Yeast [1]; pH 4.0, Week 3): <10 colony forming units; concentration of microbes (Yeast [1]; pH 4.0, Week 4): >5.7 log base 10; concentration of microbes (Yeast [1]; pH 5.0, Day 0): 5.7 log base 10; concentration of microbes (Yeast [1]; pH 5.0, Day 2): >5.7 log base 10; concentration of microbes (Yeast [1]; pH 5.0, Week 1): >5.7 log base 10; concentration of microbes (Yeast [1]; pH 5.0, Week 4): >5.7 log base 10; PLA2 inhibition, in words [2]: capable of inhibiting the activity; EC-50 of PLA2 inhibition ([2]; calculated from linear fit): 0.5 mg/mL; antimicrobial activity against Enterics, in words (Enterics [3]): does exhibit inhibition; concentration of microbes (Pseudomonas [4]; pH 3.0, Week 1): <10 colony forming units; concentration of microbes (Pseudomonas [4]; pH 3.0, Week 3): <10 colony forming units; concentration of microbes (Pseudomonas [4]; pH 3.0, Week 4): <10 colony forming units; concentration of microbes (Pseudomonas [4]; pH 4.0, Day 2): <10 colony forming units; concentration of microbes (Pseudomonas [4]; pH 4.0, Week 3): <10 colony forming units; concentration of microbes (Pseudomonas [4]; pH 4.0, Week 4): <10 colony forming units; concentration of microbes (Pseudomonas [4]; pH 5.0, Day 2): >6 log base 10; concentration of microbes (Pseudomonas [4]; pH 5.0, Week 2): <10 colony forming units; concentration of microbes (Pseudomonas [4]; pH 5.0, Week 3): <10 colony forming units; antimicrobial activity against Mold, in words (Mold): very poor level of activity; concentration of microbes (Mold; pH 3.0, Day 0): 5.2 log base 10; concentration of microbes (Mold; pH 3.0, Day 2): <10 colony forming units; concentration of microbes (Mold; pH 3.0, Week 1): <10 colony forming units; concentration of microbes (Mold; pH 3.0, Week 2): <10 colony forming units; concentration of microbes (Mold; pH 3.0, Week 3): <10 colony forming units; concentration of microbes (Mold; pH 3.0, Week 4): <10 colony forming units; concentration of microbes (Mold; pH 4.0, Day 0): 5.2 log base 10; concentration of microbes (Mold; pH 4.0, Day 2): 1.6 log base 10; concentration of microbes (Mold; pH 4.0, Week 1): <10 colony forming units; concentration of microbes (Mold; pH 4.0, Week 2): <10 colony forming units; concentration of microbes (Mold; pH 4.0, Week 3): <10 colony forming units; concentration of microbes (Mold; pH 4.0, Week 4): <10 colony forming units; concentration of microbes (Mold; pH 5.0, Day 0): 5.2 log base 10; concentration of microbes (Mold; pH 5.0, Day 2): 5.2 log base 10; concentration of microbes (Mold; pH 5.0, Week 1): 5.2 log base 10; concentration of microbes (Mold; pH 5.0, Week 2): 5.2 log base 10; concentration of microbes (Mold; pH 5.0, Week 3): 3.0 log base 10; concentration of microbes (Mold; pH 5.0, Week 4): >5 log base 10; effectiveness in preventing the onset of irritation (reduction of skin redness) [5]: 49%; inhibition of adhesion of polymorphonuclear leukocytes (PMNs) to activated endothelial cells, in words [6]: ability to inhibit the adhesion; inhibition of lymphocyte adhesion, in words (absorbance at 570 nm, Rose Bengal) ([6]; concentrations of 0.5% and 1%, IL-1β and PHA stimulated): very potent inhibitors of lymphocyte adhesion; antimicrobial activity against Pseudomonas, in words (Pseudomonas [7]): does exhibit inhibition; concentration of microbes (Yeast [8]; pH 3.0, Week 2): <10 colony forming units; concentration of microbes (Yeast [8]; pH 4.0, Week 1): 3.7 log base 10; concentration of microbes (Yeast [8]; pH 5.0, Week 2): >5.7 log base 10; concentration of microbes (Yeast [8]; pH 5.0, Week 3): >5.7 log base 10; concentration of microbes (Enterics [9]; pH 3.0, Day 0): 6.6 log base 10; concentration of microbes (Enterics [9]; pH 3.0, Week 1): <10 colony forming units; concentration of microbes (Enterics [9]; pH 3.0, Week 2): <10 colony forming units; concentration of microbes (Enterics [9]; pH 3.0, Week 3): <10 colony forming units; concentration of microbes (Enterics [9]; pH 3.0, Week 4): <10 colony forming units; concentration of microbes (Enterics [9]; pH 4.0, Day 0): 6.6 log base 10; concentration of microbes (Enterics [9]; pH 4.0, Week 1): <10 colony forming units; concentration of microbes (Enterics [9]; pH 4.0, Week 4): <10 colony forming units; concentration of microbes (Enterics [9]; pH 5.0, Day 0): 6.6 log base 10; concentration of microbes (Enterics [9]; pH 5.0, Day 2): >6 log base 10; concentration of microbes (Enterics [9]; pH 5.0, Week 1): >6 log base 10; concentration of microbes (Enterics [9]; pH 5.0, Week 3): <10 colony forming units; concentration of microbes (Enterics [9]; pH 5.0, Week 4): <10 colony forming units; antimicrobial activity against Staphylococcus, in words (Staphylococcus): does exhibit inhibition; concentration of microbes (Staphylococcus; pH 3.0, Day 0): 6.3 log base 10; concentration of microbes (Staphylococcus; pH 3.0, Day 2): <10 colony forming units; concentration of microbes (Staphylococcus; pH 3.0, Week 1): <10 colony forming units; concentration of microbes (Staphylococcus; pH 3.0, Week 2): <10 colony forming units; concentration of microbes (Staphylococcus; pH 3.0, Week 3): <10 colony forming units; concentration of microbes (Staphylococcus; pH 3.0, Week 4): <10 colony forming units; concentration of microbes (Staphylococcus; pH 4.0, Day 0): 6.3 log base 10; concentration of microbes (Staphylococcus; pH 4.0, Day 2): <10 colony forming units; concentration of microbes (Staphylococcus; pH 4.0, Week 1): <10 colony forming units; concentration of microbes (Staphylococcus; pH 4.0, Week 2): <10 colony forming units; concentration of microbes (Staphylococcus; pH 4.0, Week 3): <10 colony forming units; concentration of microbes (Staphylococcus; pH 4.0, Week 4): <10 colony forming units; concentration of microbes (Staphylococcus; pH 5.0, Day 0): 6.3 log base 10; concentration of microbes (Staphylococcus; pH 5.0, Day 2): 2.9 log base 10; concentration of microbes (Staphylococcus; pH 5.0, Week 1): <10 colony forming units; concentration of microbes (Staphylococcus; pH 5.0, Week 2): <10 colony forming units; concentration of microbes (Staphylococcus; pH 5.0, Week 3): <10 colony forming units; concentration of microbes (Staphylococcus; pH 5.0, Week 4): <10 colony forming units

Source: patent US6387947B1, “Antimicrobial cosmetic compositions” (E-L Management Corp., priority 1997, dated 2002)
